Measurements from patent US8173654B2, “Triazolopyridazine compounds” (Janssen Pharmaceutica N.V., priority 2005, dated 2012).

Experiments:
HepG2 cells = assay: HepG2 cellular scatter assay (HGF-induced, RT-CES impedance); format: cell-based; conditions: Homo sapiens, 40 ng/ml HGF
Description: Human Growth Factor (HGF) and its receptor (c-Met) are involved in cellular motility. Indeed HGF was also identified as Scatter Factor (SF), based on its powerful motility effect on certain cell types. Cellular motility is critical for pathological processes of oncologic disease, most importantly, the establishment of metastatic lesions distant from the primary tumor and formation of new blood vessels (angiogenesis). One therapeutic hypothesis is that this movement of cell types may be blunted or eliminated by the use of c-Met kinase inhibitors. (See: Jiang, W. C, Martin, T. A., Parr, C., Davies, G., Matsumoto, K. and Nakamura, T. Critical Reviews in Oncology/Hematology 53 (2005) 35-69. and references cited therein.) It should also be noted that cellular motility, especially with regard to angiogenesis, is important in other disease states.
Cellular scatter was measured with a Real-Time Cell Electronic Sensing system (RT-CES), from ACEA Biosciences Inc. (San Diego, Calif.). The RT-CES system uses specialized RT-ACE microtiter plates (cat:RCD96, ACEA Biosciences Inc.) to non-invasively quantify cellular status in real-time. The interaction of cells with the surface of the plates, which are integrated with microelectronic sensor arrays, leads to the generation of a cell-electrode impedance response. A higher impedance value indicates more cell attachment and thus less cellular scatter.
50 μl of Assay Media (MEM supplemented with 10% FBS, 2 mM L-glutamine, 1.5 g/L sodium bicarbonate, 1 mM sodium pyruvate, and 0.1 mM non-essential amino acids) was added into 96-well RT-ACE plates and recorded for 30 min on the RT-CES. 50 μl of HepG2 cells (cat: HB-8065, ATCC) were added into each well ([…]). The plate was read in RT-CES and incubated for 20-24 hours. After the 20-24 hours incubation, 50 μl of Assay Media containing different concentrations of testing compounds was added into each well and incubated for 1 hour. Finally, 50 μl of Assay Media containing 160 ng/ml of HGF was added into each well (40 ng/ml in 200 μl). The plate was incubated and read in the RT-CES for 20-24 hours, with a record time every 15 minutes. The positive control was HGF without compounds and negative control was no-HGF without compound. All determinations were performed in duplicate wells and IC50 values were calculated using GraphPad Prism software (GraphPad Software; San Diego, Calif.).

c-Met [1] = target: T1, c-Met (Homo sapiens, UniProt P08581); assay: Cell based ELISA assay for HGF stimulated c-Met phosphorylation in S114 cells; set-up: expressed in transfected cells; host or cells: S114 (murine NIH 3T3 derived); conditions: read-out: c-Met Cell ELISA IC-50
Target sequence in this assay (P08581 25-1390): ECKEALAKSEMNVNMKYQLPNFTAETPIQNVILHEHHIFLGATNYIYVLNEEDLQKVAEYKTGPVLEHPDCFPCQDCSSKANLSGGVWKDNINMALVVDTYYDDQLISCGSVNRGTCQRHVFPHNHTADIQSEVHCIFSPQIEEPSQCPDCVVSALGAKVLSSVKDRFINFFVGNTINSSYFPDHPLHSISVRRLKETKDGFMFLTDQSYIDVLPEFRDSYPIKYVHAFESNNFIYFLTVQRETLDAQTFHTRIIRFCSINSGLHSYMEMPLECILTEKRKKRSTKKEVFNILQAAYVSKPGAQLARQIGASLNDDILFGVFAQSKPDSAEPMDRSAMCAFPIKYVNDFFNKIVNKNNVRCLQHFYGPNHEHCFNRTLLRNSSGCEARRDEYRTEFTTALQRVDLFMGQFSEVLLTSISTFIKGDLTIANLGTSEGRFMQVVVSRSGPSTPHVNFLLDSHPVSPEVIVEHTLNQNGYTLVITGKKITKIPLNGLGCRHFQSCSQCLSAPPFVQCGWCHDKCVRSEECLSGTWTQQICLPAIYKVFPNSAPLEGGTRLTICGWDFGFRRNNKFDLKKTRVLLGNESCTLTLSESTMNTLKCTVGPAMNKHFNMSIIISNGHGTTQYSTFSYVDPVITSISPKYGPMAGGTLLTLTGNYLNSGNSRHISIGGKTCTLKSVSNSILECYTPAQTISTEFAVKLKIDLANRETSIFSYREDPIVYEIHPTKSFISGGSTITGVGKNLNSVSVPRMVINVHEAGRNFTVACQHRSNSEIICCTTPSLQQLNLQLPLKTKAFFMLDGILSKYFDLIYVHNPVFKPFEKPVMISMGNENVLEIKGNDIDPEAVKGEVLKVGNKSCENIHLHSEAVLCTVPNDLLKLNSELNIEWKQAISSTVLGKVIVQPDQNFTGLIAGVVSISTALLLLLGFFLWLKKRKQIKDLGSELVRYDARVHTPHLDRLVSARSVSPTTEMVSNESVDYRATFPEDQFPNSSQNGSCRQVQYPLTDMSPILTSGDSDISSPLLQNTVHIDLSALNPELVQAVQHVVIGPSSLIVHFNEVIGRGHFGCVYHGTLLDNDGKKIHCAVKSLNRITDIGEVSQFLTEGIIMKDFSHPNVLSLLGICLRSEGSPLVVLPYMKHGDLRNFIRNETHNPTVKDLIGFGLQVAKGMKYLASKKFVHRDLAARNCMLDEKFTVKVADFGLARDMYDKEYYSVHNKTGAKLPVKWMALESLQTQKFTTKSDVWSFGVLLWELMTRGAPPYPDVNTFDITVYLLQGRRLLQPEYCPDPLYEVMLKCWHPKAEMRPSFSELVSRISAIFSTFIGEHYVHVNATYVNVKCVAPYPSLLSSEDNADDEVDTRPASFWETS

c-Met [2] = target: T1, c-Met; assay: Delfia autophosphorylation kinase assay on the c-Met; format: biochemical; set-up: The purified His6 tagged cytoplasmic domain of c-Met was diluted to a concentration of 500 ng/ml; host or cells: Sf9 insect cells (baculovirus, pFastBacHTa); conditions: His6 tagged cytoplasmic domain of c-Met, 1 μM ATP; read-out: cMet Delfia autophos IC-50
Method in brief: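 Time-resolved fluorescence tracked autophosphorylation of the His6-tagged c-Met cytoplasmic domain, dispensed at 500 ng/ml onto nickel-chelate plates. Reaction buffer held 1 μM ATP, 10 mM MgCl2, vanadate and DTT at pH 8.0, for 1 h at room temperature.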
Target sequence in this assay (P08581 956-1390 limits assumed): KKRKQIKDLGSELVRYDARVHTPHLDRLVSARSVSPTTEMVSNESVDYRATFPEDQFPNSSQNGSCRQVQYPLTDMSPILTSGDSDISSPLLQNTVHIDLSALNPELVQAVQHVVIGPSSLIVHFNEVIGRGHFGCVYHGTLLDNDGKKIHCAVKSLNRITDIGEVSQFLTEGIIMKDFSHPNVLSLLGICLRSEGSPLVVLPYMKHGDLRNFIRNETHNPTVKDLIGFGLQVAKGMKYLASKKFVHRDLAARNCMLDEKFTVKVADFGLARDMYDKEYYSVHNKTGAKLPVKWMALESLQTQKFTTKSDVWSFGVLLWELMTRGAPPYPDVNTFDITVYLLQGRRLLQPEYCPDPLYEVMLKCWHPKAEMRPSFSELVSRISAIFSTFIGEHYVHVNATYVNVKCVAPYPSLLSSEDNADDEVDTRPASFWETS

- IC50 (HepG2 cells): 106 nM
- IC50 (c-Met [1]): 2 nM
- IC50 (c-Met [2]): 1 nM
Compound: Cn1cc(-c2ccc3nnc(C(F)(F)c4ccc5ncccc5c4)n3n2)cn1 [Example 61, 6-{Difluoro-[6-(1-methyl-1H-pyrazol-4-yl)-[1,2,4]triazolo[4,3-b]pyridazin-3-yl]-methyl}-quinoline]
